The numbers were not newly measured in US20250195440A1, “PHARMACEUTICAL FORMULATION COMPRISING GLUCOKINASE ACTIVATOR AND USE THEREOF” (Hua Medicine USA Inc., priority 2023, published 2025), which cites them from elsewhere.

Data set [1] deals with esterase enzymes in gastrointestinal tract. The note with it: with esterase enzymes in gastrointestinal tract.
Data set [2] concerns glucose-stimulated GLP-1 secretion. The following applies: patients with type II diabetes and obesity; Dorzagliatin alone.

On to `CC(C)C[C@@H](C(=O)Nc1ccn(C[C@@H](O)COC(=O)c2cccnc2)n1)N1CC(Oc2ccccc2Cl)=CC1=O` [compound of formula (I)], for which, in data set [1], the “Conversion into active Dorzagliatin” value is “quickly and completely converted”.

As to `CC(C)C[C@@H](C(=O)Nc1ccn(C[C@@H](O)CO)n1)N1CC(Oc2ccccc2Cl)=CC1=O` [Dorzagliatin, (S)-2-[4-(2-chloro-phenoxy)-2-oxo-2,5-dihydro-pyrrol-1-yl]-4-methyl-pentanoic acid [1-((R)-2,3-dihydroxy-propyl)-1H-pyrazol-3-yl]-amide], the “Impaired glucose-stimulated GLP-1 secretion” value in data set [2] is reported as “improved”.
